In US20250120958A1, “Treatment of GM2 Gangliosidosis” (Azafaros B.V., priority 2022, published 2025):

What was measured:
Sandhoff mice = conditions: Aspirin combined with substrate reduction therapy; cited from earlier work
[1] = Dynamic vapour sorption (DVS); type: physicochemical; conditions: high relative humidity
Source text: In addition, the behaviour of the sample of the Form 3 crystalline form of compound of formula (I) obtained by equilibration with ethyl acetate was investigated under variable water vapour pressures (DVS measurement). At the highest relative humidity of 95% the sample absorbed about 1.2% of water that was released when the relative humidity was returned to the 50% RH. The amount of absorbed water is small, and the water sorption is reversible. […] For Form 2, at high relative humidity the sample absorbed about 18% of water; however, most of the absorbed water was released when the relative humidity was returned to the 50% RH.
Dynamic vapour sorption (DVS) measurements were performed with an SPS11-100n “Sorptions Prufsystem” from ProUmid (formerly “Projekt Messtechnik”), August-Nagel-Str. 23, 89079 Ulm (Germany). About 5 mg to 20 mg of sample was put into an aluminum sample pan. Humidity change rates of 5% per hour were used.

[2] = tested on: Sandhoff mouse model (Hexb (−/−)); assay: Survival study in Sandhoff mouse model; type: in vivo; conditions: Hexb (−/−) mice, treated vs vehicle/untreated
Source text: (strain: B6; 129S4-Hexbtm1Rlp/J). The mouse line was maintained by crossing homozygous −/− males with heterozygous females (generating litters with 50%−/− and 50%+/−) under specific pathogen-free conditions. All mice were housed in individual, ventilated cages (IVCs) with 12-h light/dark cycles with food and water ad libitum. Young-adult mice of the same genetic C57BL/6 background were from Jackson Laboratories. Breeding of Hexb mutants will target needs of the “Long-term” cohorts first, followed by the “16-week” biomarker study.
Cohort 1: There were a total of 6 dose groups and 2 vehicle groups using both Hexb+/− and Hexb−/− animals. […] Dosing occurred daily from day 30 to day 170, unless the animal was prematurely euthanized per protocol.
A subsequent study to explore lower doses was also performed (in the same manner as in Example 2) in which doses of 0.02, 0.06, 0.2 and 0.5 mg/kg/day were used. […] It is unclear why the 0.06 mg/kg/day had less survival as formulations were checked and confirmed accurate dosing (internal data).

Compound: CC(=O)Oc1ccccc1C(=O)O [Aspirin]
- maximum improvement of survival (Sandhoff mice): 73%
- synergy, improvement in survival (Sandhoff mice): 11%

Compound: OC[C@H]1[C@@H](O)[C@H](O)[C@@H](O)CN1CCCCCOCc1ccc(-c2ccccc2)c(F)c1 [Form 2]
- water absorbed (DVS) [1]: about 18%

Compound: OC[C@H]1[C@@H](O)[C@H](O)[C@@H](O)CN1CCCCCOCc1ccc(-c2ccccc2)c(F)c1 [compound of formula (I)]
- increase in survival / life expectancy [2]: at least 22%
